The values below come from patent US12686704B2, “Procoagulant peptides and use thereof” (RAMBAM MED-TECH LTD., priority 2021, dated 2026).

For one test, the system named is rat. The test is described as follows: Rat models of uncontrolled hemorrhage (spleen transection, liver laceration). Conditions: for bleeding (blood loss): 150 μg/kg subcutaneous half an hour before surgery, I.V. 2 minutes following trauma, or topical, FIGS. 2A-2F; for bleeding (blood loss) / bleeding time: vs PBS control; for bleeding time: FIG. 2G. In kind it is in vivo. Here is the method: FIGS. 2A-2I include vertical bar graphs showing the effect of modified heparanase procoagulant peptides of the invention using different rat bleeding models. Two rat models of uncontrolled hemorrhage were applied. The models include spleen transection (2A) and liver laceration (2B). Blood loss was recorded every 2 minutes for the first 10 minutes after injury and at 5-minutes intervals thereafter for a total of 30 minutes. Shed blood were collected by placing reweighed gauze below the organ targeted for injury. The gauze was changed and weighed at the blood-loss intervals. Peptides 16 and 16AC were injected subcutaneously (150 μg/kg) half an hour before surgery (2A-2B) or intravenously (I.V.) in the saphenous vein (150 μg/kg) 2 minutes following the trauma (2C, 2D, 2H, and 2I). The third route of administration was topical application (150 μg/kg) on the incision site (2E-2F). The peptides were dissolved in phosphate-buffered saline (PBS) and added at a rate of a drop every 5 seconds. Control group (‘C’) was administered (either subcutaneously, intravenously, or topically) with the vehicle phosphate buffered saline (PBS). […] Mann-Whitney U test was used. Results represent mean±SD. *p<0.01, **p<0.001. In addition to Peptide 16 and Peptide 16AC, Peptide 16C, and Peptide 16A were also analyzed and compared in (2H and 2I).
Two rat models of uncontrolled hemorrhage were applied as previously described (Morgan et al., 2015; JAMA Surg.). The models included spleen transection (FIG. 2A) and liver laceration (FIG. 2B). Briefly, blood loss was recorded every 2 minutes for the first 10 minutes after injury and at 5-minute intervals thereafter for a total of 30 minutes. Shed blood were collected by placing reweighed gauze below the organ targeted for injury. The gauze was changed and weighed at the blood-loss intervals. Peptides 16 and 16AC were injected subcutaneous (150 μg/kg) half an hour before surgery (FIGS. 2A-2B) or intra-venous (I.V.) in the saphenous vein (150 μg/kg) 2 minutes following the trauma (FIGS. 2C-2D). The third route of administration was topical application (150 μg/kg) on the incision site (FIGS. 2E-2F). The peptides, dissolved in phosphate-buffered saline (PBS), were added at a rate of a drop every 5 seconds. Control (C) group was injected or topical applied with the vehicle phosphate buffered saline (PBS).

The next test has as its system HUVEC cells. The test is described as follows: Immunostaining of heparanase, TF, TFPI and TFPI-2 in HUVECs. Conditions: 10 μg/ml; overnight incubation at 37° C.; vs control cells. In kind it is cell-based, human. Here is the method: FIGS. 6A-6F include micrographs of immunohistochemistry assays showing that heparanase procoagulant peptides increase the level of heparanase in HUVECs. Ten (10) μg/ml of peptide 16 (6B-6C) or 10 μg/ml of peptide 16AC (6E-6F) was added to HUVEC cells and compared to control cells (6A-6D). After 30 min or overnight incubation at 37° C., the cells were fixed using formaldehyde 4%, permeabilized, blocked and reacted with specific heparanase antibody. […] Images were visualized through ×50 magnitude, with 0.82 MDC objective lens, captured with a Nikon E995 digital camera (Nikon, Tokyo, Japan), and processed with Adobe Photoshop software (Adobe Systems, San Jose, CA, USA).
FIGS. 7A-7F include micrographs of immunohistochemistry assays showing that heparanase procoagulant peptides increase the level of TF in HUVECs. Ten (10) μg/ml of peptide 16 (7B-7C) or 10 μg/ml of peptide 16AC (7E-7F) was added to HUVEC cells and compared to control cells (7A-7D). After 30 min or overnight incubation at 37° C., the cells were fixed using formaldehyde 4%, permeabilized, blocked and reacted with specific TF antibody. Images were visualized through ×50 magnitude, with 0.82 MDC objective lens, captured with a Nikon E995 digital camera (Nikon, Tokyo, Japan), and processed with Adobe Photoshop software (Adobe Systems, San Jose, CA, USA).
FIGS. 8A-8F include micrographs of immunohistochemistry assays showing that heparanase procoagulant peptides increase the level of TFPI in HUVECs. Ten (10) μg/ml of peptide 16 (8B-8C) or 10 μg/ml of peptide 16AC (8E-8F) was added to HUVEC cells and compared to control cells (8A-8D). After 30 min or overnight incubation at 37° C., the cells were fixed using formaldehyde 4%, permeabilized, blocked and reacted with specific TFPI-1 antibody. Images were visualized through ×50 magnitude, with 0.82 MDC objective lens, captured with a Nikon E995 digital camera (Nikon, Tokyo, Japan), and processed with Adobe Photoshop software (Adobe Systems, San Jose, CA, USA).
FIGS. 9A-9F include micrographs of immunohistochemistry assays showing that heparanase procoagulant peptides increase the level of TFPI-2 in HUVECs. Ten (10) μg/ml of peptide 16 (9B-9C) or 10 μg/ml of peptide 16AC (9E-9F) was added to HUVEC cells and compared to control cells (9A-9D). After 30 min or overnight incubation at 37° C., the cells were fixed using formaldehyde 4%, permeabilized, blocked and reacted with specific TFPI-2 antibody. Images were visualized through ×50 magnitude, with 0.82 MDC objective lens, captured with a Nikon E995 digital camera (Nikon, Tokyo, Japan), and processed with Adobe Photoshop software (Adobe Systems, San Jose, CA, USA).
Briefly, 10 μg/ml of peptide 16 or 10 μg/ml of peptide 16AC was added to HUVEC cells and compared to control cells (6A-6D). After 30 min or overnight incubation at 37° C., the cells were fixed using formaldehyde 4%, permeabilized, blocked and reacted with specific antibodies targeting heparanase, TF, TFPI-1, and TFPI-2 (FIGS. 6-9, respectively).

Test [1] relates to human umbilical vein endothelial cells (HUVEC). The test is described as follows: HUVEC proliferation, XTT assay. Conditions: 2.5 μg/ml and 5 μg/ml; 48 hour; FIG. 5A. The class given is cell-based. Here is the method: FIGS. 5A-5B include vertical bar graphs showing that heparanase procoagulant peptides induce human umbilical vein endothelial cells (HUVEC) proliferation. (5A) HUVEC cells were seeded in 96 wells plate (5,000 cells/well). Increasing concentration of peptides 16 and 16AC (2.5 μg/ml, and 5 μg/ml) were added to the cells. […] (5B) Similar experiment as described in 5A, but 10 ng/ml of peptide 7 (TFPI-2 derived inhibitory peptide) was added to the cells for 1 hour prior to the addition of peptide 16 (5 μg/ml) or 16AC (5 μg/ml).
Briefly, HUVEC cells were seeded in 96 wells plate (5,000 cells/well). Increasing concentration of peptides 16 and 16AC (2.5 μg/ml, and 5 μg/ml) were added to the cells.
Background: Formazan colour is commonly taken as a measure of viable cells.

With “GSKRRKLRVYLHCT [Peptide 16, peptide comprising the procoagulant domain of heparanase, non-modified]”, the “bleeding (blood loss)” value in the test with rat was “significant reduction”. Besides, the bleeding time entry with rat (150 μg/kg) is “significant reduction”. For the same substance, in the test on HUVEC cells, the “TF level (staining)” value is “strong staining after overnight incubation”, the “TFPI level (staining)” value is “strong staining after overnight incubation”, the “TFPI-2 level (staining)” value is on record as “strong staining after overnight incubation” and the “heparanase level (staining)” value was “strong staining after overnight incubation”. The cell proliferation result in test [1] is “significant increase in cell proliferation”.

“acetyl-GSKRRKLRVYLHCT-amid (Ac-GSKRRKLRVYLHCT-NH2) [Peptide 16AC, peptide 16 comprising a C-terminal amid group and an N-terminal acetyl group]”: the “bleeding (blood loss)” value in the test on rat is given as “significant reduction”. Moreover, in the test with rat (150 μg/kg, FIGS. 2A-2I (16C and 16A: I.V., FIGS. 2H-2I)), the “effect in reducing the bleeding, comparison between peptides” value is listed as “significantly better effect in reducing the bleeding compared to peptide 16”. Further, the bleeding time result in the test on rat (150 μg/kg) is recorded as “significant reduction”. In the test on HUVEC cells, the “TF level (staining)” value is reported as “strong staining after overnight incubation”, the “TFPI level (staining)” value is given as “strong staining after overnight incubation”, the “TFPI-2 level (staining)” value is “strong staining after overnight incubation” and the “heparanase level (staining)” value was “strong staining after overnight incubation”. Also, the cell proliferation result in test [1] is “significant increase in cell proliferation”.
